Measured values as given in patent US11071835B2, “Inhalable medicaments” (PHARMACHEMIE B.V., priority 2013, dated 2021).
Counter-ions that a name gives are not always drawn.

Conditions: batch B (formoterol 7544MO) versus batch A (formoterol 7544MA); 160/4.5 μg product; same inhaler, budesonide and lactose
Procedure: A pharmacokinetic (PK) clinical study was conducted. The PK study assessed a number of key formulation parameters, metered dose (device dose cup volume), formulation blend strength, drug substance particle size and lactose particle size, using a stepwise approach. The PK study was carried out on the middle strength product (160/4.5 μg). […] For both batch A and batch B, the inhaler, the budesonide and the lactose were the same.

In the case of `COc1ccc(CC(C)NCC(O)c2ccc(O)c(NC=O)c2)cc1` (stereo not shown) [7544MO, formoterol fumarate dihydrate], the “lowering of formoterol Cmax” value was “more than 20%”.
